{"source": "paper PMC11506537", "about": "“An 11-mer Synthetic Peptide Suppressing Aggregation of Aβ25-35 and Resolving Its Aggregated Form Improves Test Performance in an Aβ25-35-Induced Alzheimer’s Mouse Model” (Biomolecules, 2024)", "key": {"Aβ25-35": {"target": "T1, Aβ25-35 (Homo sapiens, UniProt P05067)", "T1 construct": "made in house; host or cells: chemical solid-phase (Fmoc) peptide synthesis; no expression host", "assay": "ThT assay, inhibition of Aβ25-35 aggregation", "format": "biochemical", "settings": "for IC50: 100 µM Aβ25-35, PBS, 37 °C, 4 h, ThT fluorescence, n = 3", "procedure": "To perform the ThT assay to evaluate aggregation, Aβ25-35 (final concentration of 100 μM) was incubated with ThT solution (final concentration of 10 μM) in Phosphate-buffered saline (PBS), pH 7.4. The ThT signal was monitored by measuring the fluorescence emission at 480 nm for 10 s when excited at 444 nm using Cytation 5 (BioTek, Vermont, WI, USA) at 37 °C [41]. Aggregated Aβ25-35 (100 μM) peptides were prepared by incubating for 18 h in PBS.\nWe also evaluated inhibitory effects in a time-dependent manner. The fluorescence intensity of the reaction mixture of peptide and Aβ25-35 was traced for 120 min at 15 min intervals.\nTherefore, we evaluated the concentration-dependent aggregation inhibitory effect of YS-RD11 and YS-RE16 on Aβ25-35. Various concentrations of the peptides (YS-RD11; 1 to 100 µM, YS-RE16; 0.01 to 10 µM) were incubated independently with 100 µM Aβ25-35 (final con. 100 µM) in PBS at 37 °C. The fluorescence intensity of reaction mixtures was measured after 4 h."}, "A549 cells": {"system": "A549 cells", "assay": "A549 cell viability, WST-8 assay", "settings": "0.1 mg/mL peptide, 72 h, WST-8, n = 4; compared with FLAG peptide", "protocol": "The human lung cancer cell line, A549, was obtained from the Riken Cell Bank (Ibaraki, Japan). The cells were cultured as described previously [30, 43]. Briefly, A549 cells (4 × 10^3 cells/well) were seeded into 96-well plates and maintained in Dulbecco’s modified Eagle’s medium (DMEM) supplemented with 10% fetal bovine serum, 100 units/mL penicillin, and 100 μg/mL streptomycin at 37 °C in a humidified atmosphere with 5% CO2. […] After incubation for 72 h, the medium was exchanged for 110 μL of medium containing 10 μL WST-8 (water-soluble tetrazolium salt WST-8) reagent and 100 μL DMEM). The cells were further incubated for 1 h, the absorbance was determined at 450 nm with a reference wavelength of 620 nm using a SPECTRA max Plus384 microplate reader (Molecular Devices, LCC, San Jose, CA, USA)."}, "[1]": {"settings": "in vivo; cited from earlier work"}, "aggregated Aβ25-35": {"system": "aggregated Aβ25-35", "assay": "SEM, resolution of aggregated Aβ25-35", "format": "biochemical", "procedure": "Aβ25-35 (100 μM) was incubated with YS-RD11 or YS-RE16 in PBS at 37 °C. The reaction mixture was centrifuged at 9000 rpm for 5 min. The supernatant was removed, 200 μL of MilliQ water was added and mixed, and the solution was centrifuged at 9000 rpm for 5 min to obtain a sample for SEM [42]. Aggregated Aβ25-35 (100 μM) peptides were prepared by incubating for 18 h in PBS.\nNext, the resolving effect of YS-RD11, YS-RE16, and YS-DE6 on aggregated Aβ25-35 was assessed by observing its shape using SEM."}, "u-proMMP-7": {"system": "u-proMMP-7", "settings": "cited from earlier work", "source_text": "Chaperones are potential drug candidates for folding diseases, such as AD and Parkinson’s disease, which are caused by protein aggregation. In recent years, research has focused on low-molecular-weight chemical chaperones rather than on chaperone proteins. Biochemical methods are used to screen for chemical chaperones with the aim of developing therapeutic agents for lysosomal diseases, which are ..."}, "Aβ42": {"system": "Aβ42", "parameters": "method as in 2 sources, ref 28 = [28]; PMID 30930080; doi:10.1016/j.peptides.2019.03.005; 28. Nakamura R. Konishi M. Taniguchi M. Hatakawa Y. Akizawa T. The discovery of shorter synthetic proteolytic peptides derived from Tob1 protein Peptides 2019 116 71 77 10.1016/j.peptides.2019.03.005 ||| ref 29, 30, 31 = [29]; PMID 31687556; doi:10.1016/j.heliyon.2019.e02454; 29. Hatakawa Y. Nakamura R. Konishi M. Sakane T. Saito M. Akizawa T. Catalytides derived from the Box A region in the ANA/BTG3 protein cleave amyloid-β fragment peptide Heliyon 2019 5 e02454 10.1016/j || [30]; PMID 33816760; doi:10.1002/trc2.12146; 30. Hatakawa Y. Nakamura R. Konishi M. Sakane T. Tanaka A. Matsuda A. Saito M. Akizawa T. Amyloid beta cleavage by ANA-TA9, a synthetic peptide from the ANA/BTG3 Box A region Alzheimers Dement. Transl || [31]; 31. Nakamura R. Konishi M. Hatakawa Y. Saito M. Akizawa T. The Novel Catalytic Peptide, A Synthetic Nona-Peptide (JAL-TA9) Derived from Tob1 Protein, Digests the Amyloid-β Peptide J. R. Sci. 2019 1 30", "settings": "cited from earlier work"}, "[2]": {"parameters": "method as in PMID 30930080", "settings": "structure–activity relationship of JAL-AK22; cited from earlier work"}, "Solubility": {"assay": "Solubility", "format": "physicochemical", "settings": "stated without data"}, "patients with AD": {"system": "patients with AD", "settings": "cited from earlier work", "source_text": "Alzheimer’s disease (AD) is the most common age-related neurodegenerative disorder worldwide. Amyloid-β (Aβ) 42, which is produced by the cleavage of amyloid precursor protein (APP) by β- or γ-secretases, is considered to cause AD [1, 2, 3]. […] Thus, the current main strategy is to develop Aβ antibodies and vaccines aimed at inhibiting Aβ aggregation. […] Lecanemab, the latest Aβ ant ..."}}, "note": "Where a SMILES comes first, the peptide text is derived from it."}
{"molecule": "CC(C)C[C@H](NC(=O)[C@H](Cc1c[nH]cn1)NC(=O)[C@@H](NC(=O)[C@H](CC(C)C)NC(=O)[C@H](Cc1ccc(O)cc1)NC(=O)[C@@H](NC(=O)[C@H](CC(C)C)NC(=O)[C@@H](NC(=O)[C@H](CCC(=O)O)NC(=O)[C@@H](N)CCCNC(=N)N)[C@@H](C)O)C(C)C)[C@@H](C)O)C(=O)N[C@@H](CC(=O)O)C(=O)N[C@@H](Cc1ccc(O)cc1)C(=O)N[C@@H](CC(=O)O)C(=O)N[C@@H](CC(=O)O)C(=O)N[C@H](C(=O)N[C@@H](CCC(=O)O)C(=O)O)[C@@H](C)O", "note": "[YS-RE16] (H-RETLVYLTHLDYDDTE-OH)", "values": [{"measurement": "IC50", "setting": "Aβ25-35", "value": "~500", "unit": "nM"}, {"measurement": "effect on growth of A549 cells", "setting": "A549 cells", "value": "did not show a significant inhibitory effect on the growth of A549 cells"}]}
{"molecule": "oxytocin: the peptide oxytocin", "values": [{"measurement": "drug delivery to the brain via nasal application", "setting": "[1]", "value": "direct and efficient drug delivery"}]}
{"molecule": "YKNMRETLVYLTHLD [YS-YD15]", "values": [{"measurement": "aggregation inhibitory activity against Aβ25-35 (conclusion in words)", "setting": "Aβ25-35; ThT, 100 μM peptides, PBS", "value": "weak inhibitory activity"}]}
{"molecule": "DYDDTE [YS-DE6, peptide derived from YS-RE20, DYDDTE]", "values": [{"measurement": "amyloid fibrils observed by SEM, peptide 100 µM", "setting": "aggregated Aβ25-35; 100 µM peptide + 100 µM aggregated Aβ25-35 (18 h), PBS", "value": "a cluster of amyloid fibrils"}, {"measurement": "effect on Aβ25-35 aggregation, negative control", "setting": "aggregated Aβ25-35; YS-DE6 as negative control", "value": "did not show any effect against Aβ25-35 aggregation"}]}
{"molecule": "YKNMRETLVYLTHLDYDDTE [YS-YE20]", "values": [{"measurement": "activation of u-proMMP7", "setting": "u-proMMP-7; screening of 3000 types of peptides, no reference given", "value": "activates u-proMMP7 by acting as a chaperone rather than Catalytide"}]}
{"molecule": "YKGSGFRMI [JAL-TA9]", "values": [{"measurement": "cleavage of Aβ42", "setting": "Aβ42", "value": "cleaved Aβ42 with serine protease-like activity"}, {"measurement": "cleavage of soluble (a-Aβ42) and solid insoluble (s-Aβ42) Aβ42", "setting": "Aβ42", "value": "cleaved both the authentic soluble form Aβ42 (a-Aβ42) and the solid insoluble form Aβ42 (s-Aβ42) in the central region"}, {"measurement": "auto-proteolytic activity", "setting": "[2]", "value": "strongest auto-proteolytic activity"}]}
{"molecule": "KWEGHWYPEKPYKGSGFRCIHI [JAL-AK22, reference compound]", "values": [{"measurement": "activation of proMMP-7", "setting": "u-proMMP-7", "value": "activates proMMP-7 by cleaving the pro-domain of MMP-7"}]}
{"molecule": "CC(C)C[C@H](NC(=O)[C@H](Cc1c[nH]cn1)NC(=O)[C@@H](NC(=O)[C@H](CC(C)C)NC(=O)[C@H](Cc1ccc(O)cc1)NC(=O)[C@@H](NC(=O)[C@H](CC(C)C)NC(=O)[C@@H](NC(=O)[C@H](CCC(=O)O)NC(=O)[C@@H](N)CCCNC(=N)N)[C@@H](C)O)C(C)C)[C@@H](C)O)C(=O)N[C@@H](CC(=O)O)C(=O)O", "note": "[YS-RD11] (H-RETLVYLTHLD-OH)", "values": [{"measurement": "IC50", "setting": "Aβ25-35", "value": "~1500", "unit": "nM"}, {"measurement": "solubility", "setting": "Solubility", "value": "high solubility"}, {"measurement": "effect on growth of A549 cells", "setting": "A549 cells", "value": "did not show a significant inhibitory effect on the growth of A549 cells"}]}
{"molecule": "lecanemab: latest Aβ antibody drug approved by the U.S. Food and Drug Administration (antibody, chains of the INN, looked up, V domains shown) VH: EVQLVESGGGLVQPGGSLRLSCSASGFTFSSFGMHWVRQAPGKGLEWVAYISSGSSTIYYGDTVKGRFTISRDNAKNSLFLQMSSLRAEDTAVYYCAREGGYYYGRSYYTMDYWGQGTTVTVSS VL: DVVMTQSPLSLPVTPGAPASISCRSSQSIVHSNGNTYLEWYLQKPGQSPKLLIYKVSNRFSGVPDRFSGSGSGTDFTLRISRVEAEDVGIYYCFQGSHVPPTFGPGTKLEIK", "values": [{"measurement": "side effects", "setting": "patients with AD", "value": "cerebral edema and cerebral microhemorrhage"}, {"measurement": "clinical effectiveness by AD stage", "setting": "patients with AD; patients with AD, no reference at this sentence", "value": "potentially effective in the early stages of AD but is less effective in the later stages"}]}
